Read-outs that look alike come from different tables or passages of the source.
Key:
[1] = tested on: human leukemia cell lines; test: MTT growth inhibition, panel of twelve leukemia cell lines, 72 h; assay type: cell-based; conditions: all cell lines, same experimental conditions as CP, data not shown
Experimental: [Cu(thp)4][PF6] (CP) was evaluated for its growth inhibition activity on a panel of twelve different human leukemia cell lines (five B-acute lymphoblastic leukemia, three T-acute lymphoblastic leukemia, three acute myeloid leukemia and one chronic myeloid leukemia). Cells were treated for 72 h with CP and cell viability was evaluated by MTT test. […] This abnormal high expression of proteasomal proteins and mRNA seem to be correlated to the hyperproliferation of these cancer cells and to the sensitivity towards proteasome inhibitors.
The human leukemia cell lines RS 4;11, SEM, REH, RCH-ACV, MHH-CALL2, Jurkat, CCRF-CEM, HSB2, HL-60, K562, THP-1, MV4;11 were purchased from the American Type Culture Collection. Cells were cultured in RPMI 1640 (Life Technologies, Italy) supplemented with 10% fetal bovine serum (FBS), glutamine (2 mM; Life Technologies, Italy), penicillin (100 U/ml; Life Technologies, Italy) and streptomycin (100 μg/ml; Life Technologies, Italy), and maintained at 37°C in a humidified atmosphere with 5% CO2. The cytotoxic activity of CP was determined using a standard 3-[4,5-dimethylthiazol-2-yl]-2,5-diphenyltetrazodium bromide (MTT) based colorimetric assay (Sigma-Aldrich, Italy). Briefly, cells were seeded at a density of 2×10^4 cells/well in 96-well microtiter plates. After 24 h, cells were exposed to the test compound. After different times, cell survival was determined by the addition of an MTT solution as previously described.

[2] = tested on: RS4;11 cells; test: Combined drugs analysis, MTT 48 h, Chou and Talalay; assay type: cell-based; conditions: Homo sapiens
Experimental: (§1) SEM and RS4;11 cell lines were exposed to dexamethasone (Dex), daunorubicine (Dauno), cytarabine (Ara-C) and vincristine (Vcr) in the presence or absence of CP, at fixed combination ratios.
(§2) To test potential synergistic, additive, or antagonistic effects of the combination of CP and drugs commonly used in B-ALL treatment, we performed MTT experiments as follows.
(§3) SEM, and RS4;11 cells were treated for 48 hours with one of the most used chemotherapeutic agents: cytarabine (Aractyn, Pfizer), daunorubicin (Pfizer), vincristine (Pfizer), or dexamethasone (Sigma-Aldrich). CP was also added to each drug solution, at fixed combination ratios. Cell viability was determined after 48 hours of treatment by MTT test as described above. To determine the synergistic, additive, or antagonistic effects of the drug combinations, we used CalcuSyn software (version 2.0, Biosoft, Cambridge, United Kingdom) based on the method of the combination index (CI) described by Chou and Talalay. Synergy, additivity and antagonism were defined by a CI<1, CI=1, or CI>1, respectively.

[3] = tested on: SEM cells; test: as above; assay type: cell-based; conditions: Homo sapiens
Experimental: as §1, §2, §3

[4] = tested on: RS4;11 and SEM cells; test: MTT viability with CP in presence of pan-caspase inhibitor, 48 h; assay type: cell-based, human; conditions: z-VAD.fmk 100 μM with CP 2.5 μM and 5 μM
Experimental: FIGURE 2 CP induces caspase-dependent apoptosis without mitochondria involvement (A) Assessment of mitochondrial membrane potential (ΔΨmt) after treatment of RS4;11 and SEM cells with CP (2.5 μM) for the indicated times. Cells were stained with the fluorescent probe JC-1. Data are represented as mean ± S.E.M. of three independent experiments. (B) Flow cytometric analysis of RS4;11 and SEM cells treated with CP (2.5 μM) for 24 h showing cytochrome c labeled with a monoclonal antibody conjugated to FITC. Representative image of three experiments with similar results. (C) Cells were incubated with CP 2.5 μM and 5 μM in the presence or absence of the pan-caspase inhibitor z-VAD.fmk (100 μM). Cell viability was determined after 48 h by MTT assay. Data are represented as mean ± S.E.M. of three independent experiments performed in triplicate. *p<0.01 vs CP alone. (D) Western blot analysis of Bcl-2, cleaved caspase-12, caspase-9, cleaved caspase-7, caspase-3 and PARP after treatment of SEM and RS4;11 cells with CP (2.5 μM) for the indicated times. To confirm equal protein loading, each membrane was stripped and reprobed with anti-β-actin antibody.
We therefore evaluated whether the inhibition of caspases with the pan-caspase inhibitor z-VAD.fmk would prevent cell death.

[5] = tested on: RS4;11 and SEM cells; test: Annexin-V/PI assay with CP in presence of cycloheximide, 12 h; assay type: cell-based, human; conditions: CHX 2 μg/ml with CP 2.5 μM
Experimental: To investigate if proteasome inhibition and ER stress could be responsible for CP-induced cell death, we assayed apoptosis and ER stress markers in the presence of cycloheximide (CHX), an inhibitor of protein synthesis that antagonizes ER-stress agents. The inhibition of protein synthesis reduced the accumulation of unfolded proteins in the ER and therefore ER-stress induced apoptosis.
Furthermore, CHX induced a remarkable reduction of GRP78 and CHOP expression, induced after 12 h of treatment with CP, when CHOP and GRP78 were highly expressed (Figure 5, panel C).
FIGURE 5 CP induces ER stress mediated apoptosis SEM (A) and RS4;11 (B) cells were incubated with CP (2.5 μM) in the presence or absence of cycloheximide (CHX) for 12 h, at the concentration of 2 μg/ml. Cells were analyzed by flow cytometry after double staining with Annexin-V-FITC and PI. Data are represented as mean ± S.E.M of three independent experiments. *p<0.05. (B) Western blot analysis showing the expression of GRP78 and CHOP after treatment of RS4;11 and SEM cells with CP (2.5 μM) for 12 h in the presence or absence of CHX (2 μg/ml).

[6] = RS4;11, 48 h, MTT, drug alone or with CP at fixed molar ratio, mean ± SE, read-out: GI50
[7] = SEM, MTT, drug alone or with CP at fixed molar ratio, mean ± SE, read-out: GI50

SMILES | GI50 [2, 6] [nM] | GI50 [3, 7] [nM] | other results
[Cl][Cu] [CuCl] |  |  | concentration giving only a slight reduction of cell viability [1]: > 250 µM
COc1cccc2c1C(=O)c1c(O)c3c(c(O)c1C2=O)C[C@@](O)(C(C)=O)C[C@@H]3O[C@H]1C[C@H](N)[C@H](O)[C@H](C)O1 [Dauno, daunorubicin] |  |  | GI50 ([2]; RS4-11, 48 h): 19.2 ± 1.9 nM; GI50 [3]: 96 ± 14.1 nM
CC[C@]1(O)C[C@H]2CN(CCc3c([nH]c4ccccc34)[C@@](C(=O)OC)(c3cc4c(cc3OC)N(C=O)[C@H]3[C@@](O)(C(=O)OC)[C@H](OC(C)=O)[C@]5(CC)C=CCN6CC[C@]43[C@@H]65)C2)C1 [Vcr, vincristine] | 0.071 ± 0.042 | 13.1 ± 1.2 | 
C[C@@H]1C[C@H]2[C@@H]3CCC4=CC(=O)C=C[C@]4(C)[C@@]3(F)[C@@H](O)C[C@]2(C)[C@@]1(O)C(=O)CO [Dex, dexamethasone] | 0.12 ± 0.025 | 643 ± 44.2 | 
CC(C)[C@H](NC(=O)OCc1ccccc1)C(=O)N[C@@H](C)C(=O)NC(CC(=O)O)C(=O)CF (mixture of isomers) [z-VAD.fmk, N-[(benzyloxy)carbonyl]-L-Val-Ala-DL-Asp-fluoromethylketone] |  |  | cell viability of CP-treated cells [4]: significantly increased cell viability
[Cl][Cu][Cl] [CuCl2] |  |  | concentration giving only a slight reduction of cell viability [1]: > 250 µM
C[C@@H]1C[C@@H]([C@H](O)CC2CC(=O)NC(=O)C2)C(=O)[C@@H](C)C1 [CHX, cycloheximide] |  |  | protection from CP induced cell death [5]: significant protection from CP induced cell death
Nc1ccn([C@@H]2O[C@H](CO)[C@@H](O)[C@@H]2O)c(=O)n1 [AraC, cytarabine] | 21 ± 7.1 | 22.3 ± 1.8 | 
